Measurements published in patent US20050101482A1, “Novel adsorbent” (priority 2001, published 2005).

Key:
[1] = orally ingested into human beings; cited from earlier work
[2] = Concentration of Erythromycin in the blood of rabbits; format: in vivo; conditions: rabbit, 1.5 hours after the oral ingestion of 40 mg per head, groups taking and not taking the adsorbent alike
Experimental: The symptom of diarrhea was manifested in 100% of the rabbits of the group not using the adsorbent and 0% of the rabbits of the group using the adsorbent. At this time, in the group of rabbits taking the adsorbent and the group of rabbits not taking the adsorbent alike, the concentration of Erythromycin in the blood measured 1.5 hours after the oral ingestion was invariably in the range of 0.12-0.13 μg/ml.

[3] = in human beings; cited from earlier work
[4] = orally ingested to a rabbit; cited from earlier work

SMILES: OCCOCCO [Diethylene glycol]
- toxicity LD50 [1]: 1000 mg/kg

SMILES: CC[C@H]1OC(=O)[C@H](C)[C@@H](O[C@H]2C[C@@](C)(OC)[C@@H](O)[C@H](C)O2)[C@H](C)[C@@H](O[C@@H]2O[C@H](C)C[C@H](N(C)C)[C@H]2O)[C@](C)(O)C[C@@H](C)C(=O)[C@H](C)[C@@H](O)[C@]1(C)O [Erythromycin]
- concentration at 1.5 h [2]: 120 to 130 ng/mL

SMILES: C[C@H]1CC[C@@H]2[C@@H](C)[C@H]3[C@H](C[C@H]4[C@@H]5CC=C6C[C@@H](O[C@@H]7O[C@H](CO)[C@H](O)[C@H](O[C@@H]8O[C@H](CO)[C@@H](O)[C@H](O)[C@H]8O)[C@H]7O[C@H]7O[C@@H](C)[C@H](O)[C@@H](O)[C@H]7O)CC[C@]6(C)[C@H]5CC[C@]34C)N2C1 [Solanine]
- concentration causing poisoning [3]: 0.2 to 0.4 g
- LD50 [4]: 450 mg/kg
